Data published in PubChem BioAssay AID652171 (Broad Institute, 2013).

Test system: INS-1E cytokine-induced apoptosis, ATP luminescence, 48 h
Test: inhibition of INS-1E apoptosis – cell-based, ATP luminescence, dry powder, mechanism study for beta-cell protection project, late-stage follow-up (AID 652171)

SMILES	inhibition of cytokine-induced cell death (at 20 µM (top of the series))	inhibition of cytokine-induced cell death (at 10 µM (top of the series))
C[C@@H]1CN([C@@H](C)COC(=O)NCCOCCOCCN)C(=O)c2cccc(NC(=O)Nc3cccc4ccccc34)c2O[C@H]1CN(C)S(=O)(=O)c1ccc2c(c1)OCCO2	102%	
C[C@@H]1CN([C@@H](C)CO)C(=O)c2cccc(NC(=O)Nc3cccc4ccccc34)c2O[C@H]1CN(C)S(=O)(=O)c1ccc2c(c1)OCCO2		90%
